Measured values from ChEMBL document CHEMBL1146740, “New analogue of arenastatin A, a potent cytotoxic spongean depsipeptide, with anti-tumor activity” (Bioorg Med Chem Lett, 2004).
In brackets after ≈: the same amount, converted by molar mass.

How the values were obtained:
Mus musculus [1] = test: In vivo antitumor activity (reduction of tumor volume) was determined against lewis lung carcinoma, subcutaneously in mice at a dose of 3.3 mg/kg; assay type: functional; conditions: route intravenous
[2] = In vivo antitumor activity (reduction of tumor volume) was determined over treated/control mice at a dose of 3.3 mg/kg; assay type: functional
[3] = In vivo antitumor activity (reduction of tumor volume) was determined over treated/control mice at a dose of 1.65 mg/kg; assay type: functional
Mus musculus [4] = test: In vivo antitumor activity (reduction of tumor volume) was determined against lewis lung carcinoma, subcutaneously in mice at a dose of 1.65 mg/kg; assay type: functional; conditions: route intravenous
KB 3-1 = test: Inhibitory activity was evaluated for potent cytotoxic effect on KB-3-1 cells; assay type: functional, cell-based; conditions: Homo sapiens
Mus musculus [5] = test: In vivo antitumor activity (reduction of tumor volume) was determined against lewis lung carcinoma, subcutaneously in mice at a dose of 5 mg/kg; assay type: functional; conditions: route intravenous
Mus musculus [6] = test: In vivo antitumor activity (reduction of tumor volume) was determined against lewis lung carcinoma, subcutaneously in mice at a dose of 10 mg/kg; assay type: functional; conditions: route intravenous
[7] = In vivo antitumor activity (reduction of tumor volume) was determined over treated/control mice at a dose of 2.5 mg/kg; assay type: functional
[8] = In vivo antitumor activity (reduction of tumor volume) was determined over treated/control mice at a dose of 5 mg/kg; assay type: functional
Mus musculus [9] = test: In vivo antitumor activity (reduction of tumor volume) was determined against lewis lung carcinoma, subcutaneously in mice at a dose of 2.5 mg/kg; assay type: functional; conditions: route intravenous
[10] = In vivo antitumor activity (reduction of tumor volume) was determined over treated/control mice at a dose of 10 mg/kg; assay type: functional

Row | SMILES | Tumor volume (Mus musculus [1]) | T/C [2] | T/C [3] | Tumor volume (Mus musculus [4]) | IC50 (KB 3-1) | Tumor volume (Mus musculus [5]) | Tumor volume (Mus musculus [6]) | T/C [7] | T/C [8] | Tumor volume (Mus musculus [9]) | T/C [10]
1 | CO[C@@]12[C@H](COC(N)=O)C3=C(C(=O)C(C)=C(N)C3=O)N1C[C@@H]1N[C@@H]12 [MITOMYCIN] | 3.3 cm*3 | 0.48 | 0.62 | 4.2 cm*3 |  |  |  |  |  |  | 
2 | COc1ccc(C[C@H]2NC(=O)/C=C/C[C@@H]([C@H](C)[C@H]3O[C@@H]3c3ccccc3)OC(=O)[C@H](C(C)C)OC(=O)CCNC2=O)cc1 |  |  |  |  | 0.03 µg/mL (≈ 0.0506 µM) |  |  |  |  |  | 
3 | COc1ccc(C[C@H]2NC(=O)/C=C/C[C@@H]([C@H](C)[C@H]3O[C@@H]3c3ccccc3)OC(=O)[C@H](C(C)(C)C)OC(=O)CCNC2=O)cc1 |  |  |  |  | 0.01 µg/mL (≈ 0.0165 µM) | 7.1 cm*3 | 4.9 cm*3 | 0.96 | 1.03 | 6.6 cm*3 | 0.71
